Measured values published in patent US10188630B2, “Methods for identifying and using inhibitors of casein kinase 1 epsilon isoform for inhibiting the growth and/or proliferation of MYC-driven tumor cells” (Fred Hutchinson Cancer Research Center, priority 2010, dated 2019).
pIC50: −log10 of the molar value.

Key:
[1] = tested on: IMR-32 (amplified MYCN expression); details: 1 μM or 10 μM; 48, 72 and 96 hours; compared to SK-N-AS
Description: (§1) Cyclopamine, a known natural inhibitor of SHH, was administered to SK-N-AS and IMR-32, to assess the impact of SHH inhibition on cell viability of neuroblastoma cells with normal and amplified MYCN expression, respectively. Cyclopamine was administered to the SK-N-AS and IMR-32 in 1 μM or 10 μM doses, and the growth inhibition was assayed at 48, 72 and 96 hours.

[2] = tested on: SK-N-AS (normal MYCN expression); details: 1 μM or 10 μM; 48, 72 and 96 hours
Description: as §1

[3] = tested on: WNT signaling (β-catenin reporter) in Tet-21N neuroblastoma cells; test: Integrated WNT reporter in Tet-21N neuroblastoma cells; type: cell-based; details: MYCN-on cells
Description: (§2) CSNK1ε has been implicated as a positive regulator of WNT signaling (Sakanaka, C., “Phosphorylation and Regulation of Beta-Catenin by Casein Kinase I Epsilon,” J Biochem 132:697-703, 2002). To determine the functional status of WNT activity in neuroblastoma cells with or without amplified MYCN expression, a WNT dual reporter system, employing both consensus (TOP) and mutant (FOP) TCF binding sites was assayed in neuroblastoma cell lines SK-N-AS (MYCN not amplified), SH-Sy5Y (MYCN not amplified), IMR-32 (MYCN amplified and overexpressed), and SK-N-BE2 (MYCN amplified and overexpressed), as described in (Biechele, T. L., et al., “Transcription-Based Reporters of Wnt/beta-Catenin Signaling,” Cold Spring Harb Protoc 2009, pdb prot5223).
A potential direct connection of WNT with MYCN expression was explored utilizing neuroblastoma cells expressing an inducible Tet-MYCN gene. Tet-21N neuroblastoma cells (normal MYCN expression) carrying a Tet-off-MYCN gene, were treated with or without Dox (a tetracycline compound), as described supra. […] Further, the WNT activity was assayed through the detectable activity of an integrated WNT reporter.

[4] = tested on: HFF with cMYC induced, TOV112D, COLO720E (amplified c-MYC expressing); test: Cell viability with increasing IC261, cells with amplified c-MYC; type: cell-based, human; details: IC261 at 0.5 log μM and above
Description: (§3) The effect of CSNK1ε on the cell viability of ovarian cancer lines was investigated in vitro. First, HFF (non-cancer primary cells) with control vector, RMG-1 (normal c-MYC expressing), CaOV3 (normal c-MYC expressing), HFF with cMYC induced (amplified c-MYC expressing), TOV112D (amplified c-MYC expressing), and COLO720E (amplified c-MYC expressing) were exposed to increasing concentrations of IC261. Cell viability was assessed as described above.

[5] = tested on: TOV112D/Luc human ovarian cancer cells; test: Peritoneal carcinomatosis model mice (TOV112D/Luc intraperitoneal xenograft); type: in vivo
Description: The effect of CSNK1ε on the cell viability of ovarian cancer cells was then investigated in vivo. Peritoneal carcinomatosis model mice were generated by the intraperitoneal injection of TOV112D/Luc cells. After one week, the mice were randomized into control and experimental groups, which then received daily injections of IC261 or DMSO carrier for three weeks. Weekly Luc imaging was performed for each mouse at the termination of each week of the experiment to monitor the relative viability of cancer cells that have established in the mice. […] As illustrated in the survival graph in FIG. 11B, the DMSO group and IC261 treatment groups diverged in percent survival starting at day 30 when the DMSO group began to experience drastic mortality.

[6] = tested on: PEO4 (cisplatin-resistant derivative) ovarian cancer cells; test: Cell viability with cisplatin in presence or absence of IC261; type: cell-based, human; details: 1 μM IC-261 with low doses of cisplatin
From the text: (§4) Cisplatin, or cis-diamminedichloroplatinum(II) (CDDP), is a chemotherapy drug commonly used to treat numerous types of cancers including ovarian cancer. Cisplatin contains platinum complexes that crosslink DNA, ultimately triggering apoptosis of the cell. However, many treated cancer relapse and display a resistance to cisplatin. Considering the ability of CSNK1ε inhibitors to reduce viability of cells with amplified c-MYC expression, a similar role of CSNK1ε inhibitors on cisplatin resistant cancer cells was investigated. A2780 and A2780-CP70 (resistant derivative), PEO1 and PEO4 (resistant derivative of PE01) ovarian cancer cell lines were cultured in the presence of increasing doses of cisplatin and the presence or absence of IC261. Cell viability was monitored as described above. […] It is noted that the c-MYC expression level in A2780 cells is yet undetermined.

[7] = Cell viability with increasing IC261, normal c-MYC expressing cells; type: cell-based; details: human; IC261 at 0.5 log μM and above
Description: as §3

[8] = tested on: A2780 ovarian cancer cells; test: Cell viability with cisplatin in presence or absence of IC261; type: cell-based; details: 1 μM IC-261 with increasing doses of cisplatin
From the text: as §4

[9] = tested on: A2780-CP70 (cisplatin-resistant) ovarian cancer cells; test: as above; type: cell-based; details: 1 μM IC-261 with increasing doses of cisplatin
From the text: as §4

[10] = tested on: PEO1 ovarian cancer cells; test: as above; type: cell-based; details: 1 μM IC-261 with low doses of cisplatin
From the text: as §4

[11] = tested on: IMR-32 neuroblastoma cells (amplified MYCN expression); test: Cell viability of neuroblastoma cells treated with IC261; type: cell-based
Description: Lentiviral vectors expressing Dox-inducible shRNAs targeting CSNK1ε were transduced into SK-N-AS, a neuroblastoma line with normal MYCN expression, and SK-N-BE2 and IMR-32, neuroblastoma lines with amplified MYCN expression. Expression of the shRNAs were induced with Dox and cell viability was assayed after four days using the CellTiter Glo assay (Promega, Madison, Wis.).
To evaluate the therapeutic potential of CSNK1ε kinase inhibitors for the inhibition of tumor cell growth, the kinase function of CSNK1ε polypeptide was blocked with IC261, a small molecule inhibitor of CSNK1ε and d kinase activity (Mashhoon, N., et al., “Crystal Structure of a Conformation-Selective Casein Kinase-1 Inhibitor,” J Biol Chem 275:20052-20060, 2000). Specifically, the sensitivity of MYC overexpressing cells to IC261 relative to control, was determined in vitro utilizing the neuroblastoma cell lines SK-N-AS (normal MYCN expression) and IMR-32 (amplified MYCN expression). Cultured cells were treated with a range of concentrations of IC261 and percent of cell viability was recorded over four days as described above. […] The difference in cell viability was significant at the 1, 5 and 10 μM concentrations.

[12] = tested on: IMR-32 (amplified MYCN expression) xenograft blastoma tumors; test: IMR-32 neuroblastoma xenograft in NOD/SCID mice; type: in vivo
Description: To evaluate the therapeutic potential of CSNK1ε kinase inhibitors, IC261, a small molecule inhibitor of CSNK1ε and d kinase activity (Mashhoon, N., et al., “Crystal Structure of a Conformation-Selective Casein Kinase-1 Inhibitor,” J Biol Chem 275:20052-20060, 2000) was administered to mice with established IMR-32 (amplified MYCN expression) xenograft blastoma tumors. Specifically, 10 NOD/SCID mice were injected with 1×10^7 IMR-32 blastoma cells. The tumors were allowed to establish for 6 weeks. The mice were randomized into control and IC261 treatment groups. At the start of treatment, the average tumor size for the control mice was 98.8±42.5 mm^3, whereas the average tumor size for the IC261 treatment group was 121.9±46.9 mm^3. The groups were subcutaneously injected once daily for seven days with 20.5 mg/kg of IC261 or DMSO in 200 μl. During treatment, the tumor size was monitored. […] However, at day three the average tumor volume of the IC261-treated mice was reduced, a trend that continued throughout the remaining treatment schedule, ultimately to a volume of about 100 mm^3. In contrast, the tumor volume of the DMSO-treated mice continued to increase to a volume of about 350 mm^3. Histological sections of tumors from each group were prepared after the 8th day of IC261 treatment. The tumor sections were subjected to hematoxylin and eosin (H-E) stain, TUNEL stain, and BrdU staining to ascertain the cell structure, and frequencies of cell apoptosis, and cell proliferation within the tumors. […] The images shown in FIG. 7D are representative of at least 10 fields viewed over two stained sections per animal.

[13] = tested on: WNT signaling (β-catenin activity) in COLO720E ovarian cells; test: Relative β-catenin activity (WNT signaling) in COLO720E ovarian cells; type: cell-based, human; details: higher doses of IC261 (0, 0.67, 3.3, 6.67 μM tested)
Description: as §2
The impact of stable knock-down of CSNK1ε was assessed for the expression for WNT signal function. To confirm the efficacy of the stable knockdown technique in ovarian cells, Dox-inducible lentivirus constructs encoding shRNAs targeting CSNK1ε were transduced into COLO720E ovarian cells. […] Next, to assess the WNT signaling activity, relative β-catenin activity was assayed as described, supra, for COLO720E ovarian cells transduced with the shRNA encoding lentivirus targeting CSNK1ε. […] A similar effect on relative β-catenin activity was observed upon administration of IC261, the inhibitor of CSNK1ε. […]

[14] = tested on: CaOV3 cells (normal c-MYC expression); test: Cell cycle analysis (Propidium Iodide staining, FACS); type: cell-based, human; details: 1 μM IC261; 16 and 24 hours
Description: (§5) Ovarian cancer cell lines with normal (i.e., low) and amplified expression of c-MYC were assessed for the impact of the CSNK1ε inhibitor IC261 on the progression of the cell cycle. CaOV3 cells (normal c-MYC expression) and TOV112D cells (amplified c-MYC expression) were cultured in 1 μM IC261. The cells were assessed for the state of the cell cycle, namely G1, S-phase, and G2, at time points before and 16 and 24 hours after contact with IC261 by Propidium Iodide staining followed by FACS analysis. […] However, the levels were lower for the cells with amplified c-MYC expression. […] This trend was not observed for the cancer cells with normal c-MYC expression.

[15] = tested on: TOV112D cells (amplified c-MYC expression); test: as above; type: cell-based, human; details: 1 μM IC261; 16 and 24 hours
Description: as §5

PE01 = test: IC261 loss of cell viability, ovarian cancer cell panel; type: cell-based; details: Homo sapiens
Description: as §3
(§6) Similar assays were performed with an additional panel of ovarian cancer cells, including IGROV-1, PE01, DOV13, OAW42, TOV21G, and SKOV3. The log of the half maximal effective concentration (log IC50) was calculated to reflect half the concentration of IC261 required to results in complete loss of cell viability.

OAW42 = test: as above; type: cell-based; details: Homo sapiens, OAW-42
Description: as §3, §6

TOV21G = test: as above; type: cell-based; details: Homo sapiens
Description: as §3, §6

IGROV-1 = test: as above; type: cell-based; details: Homo sapiens
Description: as §3, §6

DOV13 = test: as above; type: cell-based; details: Homo sapiens
Description: as §3, §6

SKOV3 = test: as above; type: cell-based; details: Homo sapiens, SK-OV-3
Description: as §3, §6

[16] = tested on: SK-N-AS (normal MYCN expression) cells; test: Microscopic analysis of neuroblastoma cells after IC261; type: cell-based; details: 48 hours; 0.33 μM or 3.3 μM IC261
Description: (§7) Microscopic analysis of the SN-N-AS (normal MYCN expression) and IMR-32 (amplified MYCN expression) neuroblastoma cell lines, further supporting the differential effect of the CSNK1ε inhibitor, IC261, on the health and proliferation of neuroblastoma cells overexpressing MYCN. Referring to FIG. 5, top line, micrographs are provided illustrating SK-N-AS (normal MYCN expression) cells in culture before and 48 hours after culture with DMSO, 0.33 μM, or 3.3 μM IC261. Referring to FIG. 5, bottom line, micrographs are provided illustrating IMR-32 cells (amplified MYCN expression) in culture before and 48 hours after culture with DMSO, 0.1 μM, or 1.0 μM IC261.

[17] = tested on: IMR-32 cells (amplified MYCN expression); test: as above; type: cell-based; details: 48 hours; 0.1 μM or 1.0 μM IC261
Description: as §7

CC1=C2C[C@H]3[C@@H](CC=C4C[C@@H](O)CC[C@@]43C)[C@@H]2CC[C@]12O[C@@H]1C[C@H](C)CN[C@H]1[C@H]2C [Cyclopamine]
growth inhibition [1]: more pronounced | growth inhibition [2]: Growth inhibition was detected

COc1cc(OC)c(/C=C2/C(=O)Nc3ccccc32)c(OC)c1 [IC261]
WNT reporter (β-catenin signal) [3]: repression of the WNT reporter | relative viability [4]: ≤ 25% | survival vs DMSO group ([5]; daily injections for three weeks, groups diverged starting at day 30): prolonged the life of the subjects | cancer cell proliferation and viability (Luc imaging) vs DMSO ([5]; daily injections, after two weeks): significantly reduced cancer cell proliferation and viability | difference among treatment groups (Luc imaging) ([5]; week four): much more pronounced | cell viability with low doses of cisplatin [6]: large reduction in cell viability | viability [7]: ≥ 75% | response to cisplatin (cell viability) [8]: greatly sensitized | response to cisplatin (cell viability) [9]: greatly sensitized | cell viability with low doses of cisplatin [10]: large reduction in cell viability | percent cell viability, IMR-32 compared to SK-N-AS ([11]; 48 hours, IC261 0.33 μg/ml and higher): lower percent cell viability | difference in cell viability, IMR-32 vs SK-N-AS ([11]; 72 hours): significant difference in cell viability | difference in cell viability, IMR-32 vs SK-N-AS ([11]; 96 hours, higher doses): not statistically significant | average tumor volume at end of treatment schedule ([12]; 20.5 mg/kg subcutaneously once daily for seven days): about 100 mm^3 | cell proliferation in tumor sections (BrdU stain) vs DMSO control ([12]; after the 8th day of IC261 treatment): drastically reduced indications of cell proliferation | average tumor volume ([12]; day three of treatment, 20.5 mg/kg s.c. daily): reduced | tumor volume vs DMSO-treated mice ([12]; first two days of treatment, 20.5 mg/kg s.c. daily): no significant difference | relative β-catenin activity [13]: reduced by more than two thirds | cells in the G2 phase [14]: small and transient ability to cause cell cycle arrest in G2 | percentage of cells in the G1 phase [14]: drastically reduced | cells in the G2 phase [15]: arrested at the G2 checkpoint | percentage of cells in the G1 phase [15]: drastically reduced | pIC50 (PE01): 5.06 | pIC50 (OAW42): 5.18 | pIC50 (TOV21G): 5.18 | pIC50 (IGROV-1): 3.23 | pIC50 (DOV13): 5.15 | pIC50 (SKOV3): 5.33 | cell appearance in micrographs [16]: maintained healthy spreading and attachment | cell appearance in micrographs [17]: detached from the plate surface and balled up
